In one assay the target is T1, human MAO-B (Homo sapiens, UniProt P27338).
T1 construct: expressed in transfected cells; host or cells: EBNA cells (transient transfection); cell membranes
T1 sequence (P27338 1-520): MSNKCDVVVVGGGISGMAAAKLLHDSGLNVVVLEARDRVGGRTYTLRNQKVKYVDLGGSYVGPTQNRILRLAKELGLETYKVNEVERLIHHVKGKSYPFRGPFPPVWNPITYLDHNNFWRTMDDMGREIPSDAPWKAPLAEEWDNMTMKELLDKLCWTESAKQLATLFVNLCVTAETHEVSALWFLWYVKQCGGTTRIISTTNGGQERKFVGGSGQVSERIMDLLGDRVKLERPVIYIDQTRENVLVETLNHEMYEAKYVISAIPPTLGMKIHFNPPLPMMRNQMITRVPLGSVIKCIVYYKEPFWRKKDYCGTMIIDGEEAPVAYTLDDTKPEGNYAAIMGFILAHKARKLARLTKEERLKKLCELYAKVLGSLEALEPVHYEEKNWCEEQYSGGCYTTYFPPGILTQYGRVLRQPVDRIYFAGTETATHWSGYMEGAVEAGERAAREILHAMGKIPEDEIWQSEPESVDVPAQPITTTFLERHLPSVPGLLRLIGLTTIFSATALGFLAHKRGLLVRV
Briefly: [3H]Ro 19-6327 binding assay for MAO-B on membranes of transfected EBNA cells. To be noted: 20 nM [3H]Ro 19-6327, 1 hour at 25° C., membranes of EBNA cells transfected with human MAO-B. Here is the method:
(§1) The cDNA's encoding human MAO-A and MAO-B were transiently transfected into EBNA cells using the procedure described by E.-J. Schlaeger and K. Christensen (Transient Gene Expression in Mammalian Cells Grown in Serum-free Suspension Culture; Cytotechnology, 15: 1-13, 1998). After transfection, cells were homogeneised by means of a Polytron homogeneiser in 20 mM Tris HCI buffer, pH 8.0, containing 0.5 mM EGTA and 0.5 mM phenylmethanesulfonyl fluoride. Cell membranes were obtained by centrifugation at 45,000×g and, after two rinsing step with 20 mM Tris HCI buffer, pH 8.0, containing 0.5 mM EGTA, membranes were eventually re-suspended in the above buffer and aliquots stored at −80° C. until use.
(§2) MAO-A and MAO-B activities were assayed by [^3H]Ro 41-1049 [tritiated N-(2-aminoethyl)-5-(3-fluorophenyl)-4-thiazole-carboxamide] and [^3H] Ro 19-6327 [tritiated N-(2-aminoethyl)-5-chloro-2-pyridinecarboxamide, [^3H] lazabemide] binding, respectively, following the methods described by Cesura et al. (Characterization of the binding of [^3H]Ro 41-1049 to the active site of monoamine oxidase-A, Molec. Pharmacol. 1990, 37, 358-366; [^3H]Ro 19-6327: a reversible ligand and affinity-labeling probe for monoamine oxidase-B, Eur. J. Pharmacol., 1989, 162, 457-465). Briefly, membrane aliquots were incubated in the presence of 20 nM [^3H]Ro 41-1049 (MAO-A assay) and [^3H]Ro 19-6327 (MAO-B assay) for 1 hour at 37° C. and 25° C., respectively, with or without various concentrations of the compounds, in a final volume of 0.2 ml. The incubation buffer consisted of 50 mM Tris, 130 mM NaCl, 5 mM KCI, 1 mM MgCl2, 0.5 mM EGTA, buffered to pH 7.4 with HCl. The assay was terminated by filtering the samples through GF/C filters (Unifilter-96, Canberra Packard). The radioactivity retained on the filters was eventually counted for radioactivity by means of a Packard Top-Count scintillation counter, after addition of Microscint 40 scintillation fluid (Canberra Packard). Non-specific binding was determined in the presence of 10 μM clorgyline for MAO-A or 10 μM L-deprenyl for MAO-B.
(§3) IC50 values, that is, the concentration of a test compound of formula I required to inhibit the MAO-B enzyme activity by 50%, were determined from inhibition curves obtained using nine inhibitor concentrations in duplicate, by fitting data to a four parameter logistic equation using a computer program.

A further assay addresses T2, human MAO-A (Homo sapiens, UniProt P21397).
T2 construct: expressed in transfected cells; host or cells: EBNA cells (transient transfection); cell membranes
T2 sequence (P21397 1-527): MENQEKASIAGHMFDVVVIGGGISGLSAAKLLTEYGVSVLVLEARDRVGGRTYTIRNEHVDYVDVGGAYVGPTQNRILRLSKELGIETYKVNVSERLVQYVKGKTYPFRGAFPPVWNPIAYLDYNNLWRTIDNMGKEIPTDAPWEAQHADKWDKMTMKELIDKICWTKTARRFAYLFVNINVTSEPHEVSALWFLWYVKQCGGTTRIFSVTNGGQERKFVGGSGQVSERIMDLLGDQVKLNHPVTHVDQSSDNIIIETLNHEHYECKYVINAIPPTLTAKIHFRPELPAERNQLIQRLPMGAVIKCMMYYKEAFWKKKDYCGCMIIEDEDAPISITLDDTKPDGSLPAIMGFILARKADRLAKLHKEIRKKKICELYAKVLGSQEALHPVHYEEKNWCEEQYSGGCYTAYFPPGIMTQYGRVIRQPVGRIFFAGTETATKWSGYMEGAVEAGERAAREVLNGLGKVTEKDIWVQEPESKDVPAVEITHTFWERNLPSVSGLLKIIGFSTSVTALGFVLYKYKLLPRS
As to the kind of experiment: [3H]Ro 41-1049 binding assay for MAO-A on membranes of transfected EBNA cells. To be noted: 20 nM [3H]Ro 41-1049, 1 hour at 37° C., membranes of EBNA cells transfected with human MAO-A. How it is done:
as §1, §2, §3

The IC50 is the concentration needed to halve the response being measured. `NC(=O)CNC(=O)c1ccc(OCc2ccccc2)nc1` [Example 1, 6-Benzyloxy-N-carbamoylmethyl-nicotinamide]: the results for the IC50 at human MAO-B and on human MAO-A were 0.033 µM and over 10 µM, respectively.
For `NC(=O)CNC(=O)c1ccc(OCc2cccc(F)c2)nc1` [Example 2, N-Carbamoylmethyl-6-(3-fluoro-benzyloxy)-nicotinamide] the same measures were 0.03 µM and 4.15 µM.
In the case of `NC(=O)CNC(=O)c1ccc(OCc2cccc(F)c2)cn1` [Example 7, 5-(3-Fluoro-benzyloxy)-pyridine-2-carboxylic Acid Carbamoylmethyl-amide], the IC50 at human MAO-B was 0.028 µM; on human MAO-A it was 9.16 µM.
On to `NC(=O)CNC(=O)c1ccc(OCc2ccc(F)cc2)cn1` [Example 8, 5-(4-Fluoro-benzyloxy)-pyridine-2-carboxylic Acid Carbamoylmethyl-amide], for which the IC50 at human MAO-B is 0.03 µM; at human MAO-A, over 10 µM.
Take `NC(=O)CNC(=O)c1ccc(OCc2ccc(F)c(F)c2)cn1` [Example 9, 5-(3,4-Difluoro-benzyloxy)-pyridine-2-carboxylic Acid Carbamoylmethyl-amide]: the IC50 on human MAO-B was 0.043 µM; at human MAO-A, over 10 µM.
As to `C[C@H](NC(=O)c1ccc(OCc2ccc(F)cc2)cn1)C(N)=O` [Example 11, (S)-5-(4-Fluoro-benzyloxy)-pyridine-2-carboxylic Acid (1-carbamoyl-ethyl)-amide], the half-maximal inhibitory concentration (IC50) on human MAO-B was 0.07 µM; at human MAO-A, over 10 µM.

The values above are taken from US6667327B2, “Pyridine amido derivatives” (Hoffmann-La Roche Inc., priority 2003, dated 2003).
